Where two headings read alike, the source gives them in different places.
Tests used:
female rats = test: antifatigue effect: rota-rod; assay type: in vivo, rat; conditions: Rattus norvegicus, ip, 0.25 h; for responders at 300 mg/kg: read-out: percentage of animals staying on the rota-rod more than 180 seconds, 300 mg/kg i.p.; for responders at 400 mg/kg: read-out: percentage of animals staying on the rota-rod more than 180 seconds, 400 mg/kg i.p.; for responders at 600 mg/kg: read-out: percentage of animals staying on the rota-rod more than 180 seconds, 600 mg/kg i.p.
How it was run: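 Female rats dosed intraperitoneally in saline, with controls given saline alone. Every 15 min after treatment animals were placed on a 6 cm rod rotating at 16 r.p.m. Value is the percentage of animals staying on the rod for more than 180 s, per session.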

isolated rabbit hearts [1] = test: cardiokinetic effect on isolated heart (Langendorff): contractile force after anoxia, positive inotropic effect; conditions: 10 minutes from interruption of anoxic period
How it was run: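 Rabbit hearts were perfused Langendorff-style with oxygenated Ringer at 38.2 °C. Anoxia was applied until contractile force dropped by 80%, then the hearts were reoxygenated with or without compound. Contractile force was expressed as a percentage 10 min after the anoxic period ended.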

isolated rabbit hearts [2] = test: coronary vasodilator effect: coronary flow, isolated heart (Langendorff)
How it was run: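 Langendorff-perfused isolated rabbit hearts in oxygenated Ringer at 38.2° C; anoxia imposed until contractile force fell by 80%, then reoxygenated with or without test compound. Coronary flow, isometric contraction and ECG recorded by polygraph.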

isolated rat atrium = test: antiarrhythmic effect, isolated rat atrium method of M. Libonati and G. Segre; conditions: Rattus norvegicus
[3] = session 6 (every 15 minutes), * p < 0.05
[4] = read-out: Mean percent variation versus controls: excitability (-%)
[5] = read-out: Mean percent variation versus controls: frequency max (-%)
[6] = read-out: Mean percent variation versus controls: refractory period (+%)
[7] = read-out: Mean percent variation versus controls: rheobase (+%)

Row | SMILES | responders at 300 mg/kg (female rats; session 1 (every 15 minutes)) | responders at 300 mg/kg (female rats; session 2 (every 15 minutes)) | responders at 300 mg/kg (female rats; session 3 (every 15 minutes)) | responders at 300 mg/kg (female rats; session 4 (every 15 minutes)) | responders at 300 mg/kg (female rats; session 5 (every 15 minutes)) | responders at 300 mg/kg (female rats; session 6 (every 15 minutes)) | responders at 400 mg/kg (female rats; session 1 (every 15 minutes)) | responders at 400 mg/kg (female rats; session 2 (every 15 minutes)) | responders at 400 mg/kg (female rats; session 3 (every 15 minutes)) | responders at 400 mg/kg (female rats; session 4 (every 15 minutes)) | responders at 400 mg/kg (female rats; session 5 (every 15 minutes)) | responders at 400 mg/kg (female rats; [3]) | responders at 600 mg/kg (female rats; session 1 (every 15 minutes)) | responders at 600 mg/kg (female rats; session 2 (every 15 minutes)) | responders at 600 mg/kg (female rats; session 3 (every 15 minutes)) | responders at 600 mg/kg (female rats; session 4 (every 15 minutes)) | responders at 600 mg/kg (female rats; session 5 (every 15 minutes)) | responders at 600 mg/kg (female rats; [3]) | Contractile force, Mean ± S.E. (isolated rabbit hearts [1]; 1·10^-5 g/lt) | Contractile force, Mean ± S.E. (isolated rabbit hearts [1]; 1·10^-6 g/lt) | also measured
1 | CCCCCCCCCCCCCCCC(=O)OC(CC(=O)[O-])C[N+](C)(C)C (racemic) [palmitoyl-d,l-carnitine] | 0% | 0% | 0% | 0% | 10% | 10% | 0% | 0% | 0% | 10% | 20% | 20% | 0% | 0% | 0% | 20% | 20% | 30% | 38.2 ± 4.75% | 27.8 ± 4.71% | Contractile force, Mean ± S.E. (isolated rabbit hearts [1]; 5·10^-6 g/lt): 33.4 ± 3.08%; Coronary flow, Mean ± S.E. (isolated rabbit hearts [2]; 1·10^-5 g/lt): 84.68 ± 7.20%; Coronary flow, Mean ± S.E. (isolated rabbit hearts [2]; 1·10^-6 g/lt): 78.15 ± 7.21%; Coronary flow, Mean ± S.E. (isolated rabbit hearts [2]; 5·10^-6 g/lt): 72.20 ± 12.73%; inhibition at 0.001 µg/mL (isolated rat atrium; [4]): 0%; inhibition at 0.01 µg/mL (isolated rat atrium; [4]): 3.01%; inhibition at 0.1 µg/mL (isolated rat atrium; [4]): 32.8%; inhibition at 0.001 µg/mL (isolated rat atrium; [5]): 16.9%; inhibition at 0.01 µg/mL (isolated rat atrium; [5]): 8.14%; inhibition at 0.1 µg/mL (isolated rat atrium; [5]): 80.5%; activation at 0.001 µg/mL (isolated rat atrium; [6]): 0%; activation at 0.01 µg/mL (isolated rat atrium; [6]): 13.7%; activation at 0.1 µg/mL (isolated rat atrium; [6]): 34.1%; activation at 0.001 µg/mL (isolated rat atrium; [7]): 22.2%; activation at 0.01 µg/mL (isolated rat atrium; [7]): 7.33%; activation at 0.1 µg/mL (isolated rat atrium; [7]): 6.91%
2 | CCC(=O)OC(CC(=O)[O-])C[N+](C)(C)C (racemic) [propionyl-d,l-carnitine] | 0% | 0% | 0% | 10% | 20% | 40% | 0% | 0% | 10% | 20% | 20% | 40% | 0% | 10% | 20% | 30% | 40% | 40% | 60.1 ± 3.12% | 32.0 ± 5.06% | Contractile force, Mean ± S.E. (isolated rabbit hearts [1]; 5·10^-6 g/lt): 38.4 ± 4.86%; Coronary flow, Mean ± S.E. (isolated rabbit hearts [2]; 1·10^-5 g/lt): 89.27 ± 7.24%; Coronary flow, Mean ± S.E. (isolated rabbit hearts [2]; 1·10^-6 g/lt): 80.61 ± 7.56%; Coronary flow, Mean ± S.E. (isolated rabbit hearts [2]; 5·10^-6 g/lt): 78.76 ± 11.03%; inhibition at 0.001 µg/mL (isolated rat atrium; [4]): 2.24%; inhibition at 0.01 µg/mL (isolated rat atrium; [4]): 28.4%; inhibition at 0.1 µg/mL (isolated rat atrium; [4]): 14.7%; inhibition at 0.001 µg/mL (isolated rat atrium; [5]): 10.7%; inhibition at 0.01 µg/mL (isolated rat atrium; [5]): 11.4%; inhibition at 0.1 µg/mL (isolated rat atrium; [5]): 7.65%; activation at 0.001 µg/mL (isolated rat atrium; [6]): 8.16%; activation at 0.01 µg/mL (isolated rat atrium; [6]): 14%; activation at 0.1 µg/mL (isolated rat atrium; [6]): 19.3%; activation at 0.001 µg/mL (isolated rat atrium; [7]): 3.57%; activation at 0.01 µg/mL (isolated rat atrium; [7]): 51.3%; activation at 0.1 µg/mL (isolated rat atrium; [7]): 52.1%

Source: patent US4194006A, “Therapeutic application of acetyl-d,l-carnitine and other acyl derivatives of d,l-carnitine” (priority 1977, dated 1980)
